{"source": "patent US8685726B2", "about": "“Small molecules supporting pluripotent cell growth and methods thereof” (Viacyte, Inc., priority 2009, dated 2014)", "molecules": {"B1": {"name": "Activin: recombinant Activin A growth factor of the defined medium (protein, UniProt P08476 311-426, looked up)", "Inhibin beta A chain": "GLECDGKVNICCKKQFFVSFKDIGWNDWIIAPSGYHANYCEGECPSHIAGTSGSSLSFHSTVINHYRMRGHSPFANLKSCCVPTKLRPMSMLYYDDGQNIIKKDIQNMIVEECGCS", "modifications": "Inhibin beta A chain"}}, "assay_type_in_all_cases": "cell-based, human", "key": {"[1]": {"system": "hES cells (e.g., BGO2 cells)", "assay": "Low-density colony forming / colony counting assay (AP+ colonies)", "conditions": "10^4 cells/well, StemPro hESC SFM, 7 days; for support of colony formation at low density: compounds at 10 or 50 μM", "method": "FIG. 2. Low density plating assay of hES cells (e.g., BGO2 cells). 10000 cells/well were plated in 6-well trays in StemPro® hESC SFM (Life Technologies) medium and stained with alkaline phosphatase (AP+) after 7 days. Y (Y27632), ACh (acetylcholine), NMDA (N-methyl-D-aspartic acid), NE ((−)-Norepinephrine), NE.Bit ((±)-Norepinephrine (+)-bitartrate). Compounds were added at 10 or 50 μM as indicated.\nFIG. 3. Low density plating assay of hES cells. (A) 200-10000 cells/well were plated in […] trays in StemPro® hESC SFM medium, or StemPro® hESC SFM +50 μM NE, or +50 μM ACh, and stained with alkaline phosphatase (AP+) after 8 days. […] ACh (acetylcholine), NE ((±)-Norepinephrine (+)-bitartrate). […]\nAbout 10^4 hES cells/well were plated in 6-well trays in StemPro® hESC SFM, in the presence of different compounds and cultured for about 7 days. The cultures were then fixed, stained for alkaline phosphatase activity and colonies were counted (FIG. 2). […] The (±)-Norepinephrine (+)-bitartrate salt was used for all subsequent experiments involving norepinephrine (NE) unless specifically described otherwise.\nA similar colony counting experiment was performed using a range of cell densities (FIG. 3). […] See Robins and Schulz 2009, supra. […]"}, "hES cells": {"system": "hES cells", "assay": "Low-density real-time cell index monitoring (RT-CES impedance reader)", "conditions": "for survival/proliferation compared to DMSO controls / survival and expansion at low density, single factors and two-factor combinations / time after plating at which cell index rises above background / expansion detectable: 1000 cells/well; for survival/proliferation compared to DMSO controls: StemPro hESC SFM HIA, low-density impedance assay; for survival and expansion at low density, single factors and two-factor combinations: 50 μM (NE, ACh, Adenosine, GABA) or 10 μM (Y27632), 5 days; for time after plating at which cell index rises above background / expansion detectable: 50 μM each factor, StemPro hESC SFM", "method": "FIG. 4. Titration of NE and ACh using the RT-CES impedance reader. 1000 hES cells/well were plated in StemPro® hESC SFM containing the indicated concentrations of small molecules (in μM). In such an assay, the timing of when the cell index rises is associated with the proportion of cells that survive and expand at low density.\nFIG. 5. Combined effects of small molecules compound combinations in low cell density assays. (A) 1000 hES cells/well were plated in StemPro® hESC SFM containing small molecules at 50 μM (NE, ACh, Adenosine, GABA) or 10 μM (Y27632). The assay was carried out over 5 days using the RT-CES system.\nFIG. 6. […] 1000 hES cells/well were plated in StemPro® hESC SFM containing Heregulin, IGF1 and Activin (HIA) and the indicated small molecules. […] Compounds were tested at 10 μM. The DMSO trace is an average of 8 wells. […] Compounds were tested at the indicated concentrations.\nFIG. 7. […] 1000 hES cells/well were plated in StemPro® hESC SFM containing the indicated combinations of growth factors and small molecules. Heregulin (H), LR3-IGF1 (I), Activin (A).\nFIG. 9. Low-density RT-CES assays of combinations of growth factors and neurotransmitters. 1000 hES cells/well were plated in StemPro® hESC SFM containing the indicated combinations of growth factors and small molecules. Heregulin (H), LR3-IGF1 (I), Activin (A). Small molecules were tested at 50 μM.\nFurthermore, pluripotent cells can also be grown in 96-well culture devices that provide real-time measurements of impedance, which can be used to measure cell proliferation and viability using the RT-CES™ methods from ACEA Biosciences, Inc. (www (dot) aceabio (dot) com). Such an approach would enable a label-free identification and quantification of subtle or immediate effects on differentiable cells, as well as measurements of proliferation, apoptosis and changes to morphology, in real time.\nTo examine more closely the potency of individual neurotransmitters and determine if synergies exist between different factors, low-density assays were performed in real time using an impedance reader. The ACEA biosciences RT-CES system uses 96-well trays that contain embedded microsensors to monitor changes in electrical impedance, which is translated into a measure of cell index. Any overt alteration within a cell culture can be detected, including but not limited to cell proliferation, migration, cell spreading, apoptosis, differentiation and the like. […] Once an undifferentiated culture becomes confluent the cell index remains high, but tends to go down and up (scallop) between daily feedings. Conversely, differentiation is typically indicated by the appearance of distinctive patterns, such as peaks and troughs in the cell index, likely indicative of an epithelial-to-mesenchymal transition, flattening, cell migration, apoptosis or similar differentiation and growth related changes.\nHuman ES cells were plated at low density, 1000 cells/well, in RT-CES trays and cultured for 10 days (FIG. 4). Cells were plated directly in StemPro® hESC SFM containing carrier control (DMSO), NE, or ACh."}, "CyT49 cells": {"system": "CyT49 cells", "assay": "Suspension aggregate culture, cell counts and aggregate diameters", "method": "FIG. 10. Effects of NE and ACh in suspension culture of hES cell. (A) 5×10^6 CyT49 cells were seeded in 5 ml StemPro® hESC SFM containing heregulin, LR3-IGF1, Activin and the indicated neurotransmitters at 50 μM in low-attachment 6-well trays and placed at 100 rpm. Undifferentiated suspension aggregates were imaged on day 4. (B) 24 hours after seeding, two wells from each condition were harvested and counted to determine the number of viable cells. (C) Cell counts of each condition when the cultures were split on day 4. (D) The images in (A) were used to determine aggregate diameters using the ImagePro software measurement tool. Average diameters and standard deviations from 50-100 aggregates from each condition are shown. (E) Passage 1 cell counting data. 5×10^6 CyT49 hES cells from p0 cells in (A) were seeded into the same conditions. The aggregates in the condition containing Y27632 were larger and had to be passaged 3 days after seeding, before the centers of the largest aggregates became necrotic. Conversely, the other conditions could be cultured for 6 days before passaging, resulting in higher cell counts.\nFIG. 11. Suspension hES cell cultured with NE, […] remain undifferentiated. CyT49 cells were grown as suspension aggregates in the presence of NE, […] for 16 passages without differentiating morphologically. After p10, some cells were re-plated to adherent culture and examined by karyotyping and immunofluorescent staining for OCT4 and Tra-1-61. All cultures remained undifferentiated and expressed these pluripotency markers uniformly. (SP) StemPro® SFM HIA, NE (+NE at 50 μM), ACh (+ACh at 50 μM), NE/ACh (+NE/ACh at 50 μM). Karyotype data is shown to the right. […] Cultures containing ACh were aneuploid.\nSmall molecule ligands that support survival or self-renewal at low cell densities could also be expected to have beneficial effects in other culture formats. Applicants have previously developed a suspension culture system for hES cells that enables serial propagation of cells and effective expansion of cultures. Human ES cells, at least BG02 and CyT49 cells, have been maintained in suspension for greater than 10 passages without differentiation. The basis of the technique is to dissociate cultures to single cells with reagents that preserve high viability, such as Accutase™, TrypLE or cell dispersal buffer, then aggregate defined concentrations of cells in defined medium in rotational culture. These methods are described in more detail in International Application PCT/US2008/082356, entitled STEM CELL AGGREGATE SUSPENSION COMPOSITIONS AND METHODS OF DIFFERENTIATION THEREOF, filed Nov. 4, 2008; and International Application PCT/US2007/062755, entitled COMPOSITIONS AND METHODS FOR CULTURING DI[…], filed Feb. 23, 2007, which are herein incorporated by reference in their entireties. Self-aggregation of hES cells occurs in the absence of added extracellular matrix (ECM) or ECM-like proteins and is presumed to be driven in part by homotypic interaction of E-cadherin. The aggregates that are formed expand over 3-4 days and are kept apart from each other by the shear forces generated by rotational culture. Cells are blocked from differentiating by the self-renewal signaling provided by the defined medium and retain their pluripotent characteristics: marker expression, normal karyotype, and differentiation potential in vitro and in teratomas. […]"}}, "note": "Entries after “also recorded” stand apart in the source; their conditions may differ.", "data": [{"molecule": "NCCc1c[nH]cn1", "note": "[histamine]", "values": [{"measurement": "support of colony formation at low density", "setting": "[1]", "result": "failed to support enhanced colony formation"}, {"measurement": "survival/proliferation compared to DMSO controls", "setting": "hES cells", "result": "lack of robust activity"}]}, {"molecule": "CN1CCCC1c1cccnc1", "note": "(stereo not drawn) [nicotine]", "values": [{"measurement": "support of colony formation at low density", "setting": "[1]", "result": "failed to support enhanced colony formation"}]}, {"molecule": "NCCCC(=O)O", "note": "[GABA]", "values": [{"measurement": "survival and expansion at low density, single factors and two-factor combinations", "setting": "hES cells", "result": "less effective"}, {"measurement": "time after plating at which cell index rises above background / expansion detectable", "setting": "hES cells", "result": "~4.5", "unit": "days"}, {"measurement": "survival/proliferation compared to DMSO controls", "setting": "hES cells", "result": "lack of robust activity"}]}, {"molecule": "Nc1ncnc2c1ncn2[C@@H]1O[C@H](CO)[C@@H](O)[C@H]1O", "note": "[adenosine]", "values": [{"measurement": "support of colony formation at low density", "setting": "[1]", "result": "supported elevated colony formation"}, {"measurement": "survival and expansion at low density, single factors and two-factor combinations", "setting": "hES cells", "result": "less effective"}, {"measurement": "time after plating at which cell index rises above background / expansion detectable", "setting": "hES cells", "result": "~4.5", "unit": "days"}]}, {"molecule": "(−)-Norepinephrine", "values": [{"measurement": "support of colony formation at low density", "setting": "[1]", "result": "supported elevated colony formation"}]}, {"molecule": "C[C@@H](N)[C@H]1CC[C@H](C(=O)Nc2ccncc2)CC1", "note": "[Y27632]", "values": [{"measurement": "AP+ colonies counted", "setting": "[1]; 6-well trays", "result": 0, "unit": "colonies"}, {"measurement": "support of colony formation at low density", "setting": "[1]", "result": "did not support colony survival/expansion"}, {"measurement": "survival and expansion at low density, single factors and two-factor combinations", "setting": "hES cells", "result": "did not survive or proliferate; also recorded: reduced the effects of NE, ACh, Adenosine and GABA"}, {"measurement": "cells generated at passage 1", "setting": "CyT49 cells; passaged after 3 days", "result": "about 1.2×10^7 cells"}, {"measurement": "aggregate size on day 4", "setting": "CyT49 cells; suspension, StemPro hESC SFM HIA, neurotransmitters 50 μM", "result": "fewer numbers of larger aggregates"}]}, {"molecule": "CN[C@H](CC(=O)O)C(=O)O", "note": "[NMDA, N-methyl-D-aspartic acid]", "values": [{"measurement": "support of colony formation at low density", "setting": "[1]", "result": "failed to support enhanced colony formation"}, {"measurement": "survival/proliferation compared to DMSO controls", "setting": "hES cells", "result": "lack of robust activity"}]}, {"molecule": "B1", "values": [{"measurement": "role in plating, survival and/or expansion at low cell density", "setting": "hES cells; low cell density", "result": "major negative role"}]}]}
